Patent publication US20260041741A1, “CD39 AND CD73 FOR THE THERAPY OF HEMORRHAGIC SHOCK” (The Trustees of Columbia University in the City of New York, priority 2023, published 2026)

B1: rhCD73: recombinant human (rh) CD73 from Daresbury Proteins; CD73 mimic (protein, UniProt P21589 27-549, looked up)
5'-nucleotidase: WELTILHTNDVHSRLEQTSEDSSKCVNASRCMGGVARLFTKVQQIRRAEPNVLLLDAGDQYQGTIWFTVYKGAEVAHFMNALRYDAMALGNHEFDNGVEGLIEPLLKEAKFPILSANIKAKGPLASQISGLYLPYKVLPVGDEVVGIVGYTSKETPFLSNPGTNLVFEDEITALQPEVDKLKTLNVNKIIALGHSGFEMDKLIAQKVRGVDVVVGGHSNTFLYTGNPPSKEVPAGKYPFIVTSDDGRKVPVVQAYAFGKYLGYLKIEFDERGNVISSHGNPILLNSSIPEDPSIKADINKWRIKLDNYSTQELGKTIVYLDGSSQSCRFRECNMGNLICDAMINNNLRHTDEMFWNHVSMCILNGGGIRSPIDERNNGTITWENLAAVLPFGGTFDLVQLKGSTLKKAFEHSVHRYGQSTGEFLQVGGIHVVYDLSRKPGDRVVKLDVLCTKCRVPSYDPLKMDEVYKVILPNFLANGGDGFQMIKDELLRHDSGDQDINVVSTYISKMKVIYPAVEGRIKFS

What was measured:
rat model of T/HS = conditions: posttreatment; cited from earlier work
[1] = tested on: hypoxic CD73 deficient mice; conditions: exogenous administration; cited from earlier work
T/HS mice [2] = experiment: Pulmonary neutrophil sequestration (lung MPO activity) after trauma/hemorrhagic shock; type: in vivo; conditions: for neutrophil infiltration (lung MPO activity): NECA pretreatment 0.0025 mg/kg; for neutrophil sequestration / infiltration in lung (MPO activity): wild-type T/HS mice vs vehicle, i.p. pretreatment 30 min before shock, POM1 5 mg/kg, apyrase 125 U/kg, PSB 12379 50 mg/kg, rhCD73 2 mg/kg
Method: (§1) In one set of studies, wild-type mice were randomly assigned into the following groups: trauma/sham shock (T/SS) receiving vehicle (saline), trauma/hemorrhagic shock (T/HS) receiving vehicle (saline), T/HS receiving POM1 (5 mg/kg), T/HS receiving apyrase (125 U/kg), T/HS receiving PSB 12379 (50 mg/kg), and T/HS receiving rhCD73 (2 mg/kg). In addition, in another group of studies, CD39^−/−, CD73^−/−, A2BAR^−/− and wild-type type mice were subjected to T/SS or T/HS. Some CD39^−/− and CD73^−/− were pretreated with NECA (0.0025 mg/kg). In pharmacological experiments, mice were pretreated intraperitoneally (30 min before T/SS or T/HS) with various agents.
(§2) The mice were given anesthesia using 1% isoflurane and their rectal temperature was maintained between 36.5 and 37.5° C. using a feedback-controlled homeothermic blanket heating system (Sumno-suite, Kent Scientific). Hemorrhagic shock was induced using a fixed-pressure model. Initially, a midline laparotomy of 2 cm was performed on the anesthetized mice, which was later closed with a 4-0 silk suture (034902, Covetrus, USA). Following this, catheters were placed in the right and left femoral arteries for monitoring blood pressure and blood withdrawal, respectively. A sterile 1-ml syringe with a 30G needle attached to PE-10 tubing filled with 0.2 ml of 1% heparinized saline was used for blood withdrawal, and each mouse received 1U heparin. Blood pressure was monitored using a continuous blood-pressure monitoring system (Powerlab 8/30, ADInstruments, Colorado Springs, CO, USA). After 5 minutes of baseline blood pressure recording, a drug or vehicle was administered to the mice, followed by inducing shock for a period of 2.5 hours, during which the blood pressure was maintained between 28-32 mmHg by withdrawing or reinfusing the shed blood. At the end of the shock period, the mice were resuscitated with Ringer's Lactate at three times the amount of shed blood for 15 minutes (32). Three hours after resuscitation, the mice were euthanized and bronchoalveolar lavage fluid (BALF), blood, and tissue samples were collected. T/SS animals were exposed to the same procedures as other animals except for blood withdrawal (FIG. 1).
Lung, liver, kidney, and gut samples were pooled from 4 mice in the same group, homogenized, sonicated, and treated with a 1×RIPA Buffer with Protease/phosphatase inhibitor cocktail (P8340, Sigma, USA), and the resulting homogenate was centrifuged at 13.000× g for 10 minutes at 4° C. Total protein content was determined by using Qubit 4.0 Fluorometer (Thermo Fisher, USA) as per the manufacturer's instructions.
To evaluate neutrophil sequestration in the lung following T/SS or T/HS, myeloperoxidase (MPO) activity was assessed using an MPO activity kit (MAK068, Sigma, USA). The supernatant of lung lysates was assayed according to the manufacturer's instructions (32).

T/HS mice [3] = experiment: Lung permeability (Evans blue dye) after trauma/hemorrhagic shock; type: in vivo; conditions: wild-type T/HS mice vs vehicle; i.p. pretreatment 30 min before shock; POM1 5 mg/kg, apyrase 125 U/kg, PSB 12379 50 mg/kg, rhCD73 2 mg/kg
Method: as §1, §2
Mice were re-anesthetized with isoflurane 3 hours after the end of resuscitation. Evans blue dye (EBD) technique was used to determine lung permeability. EBD was administered through the tail vein, and about 1 ml of blood was withdrawn from the tail artery five minutes later. The supernatant of BALF was assayed at 620 nm spectrophotometrically. The amount of Evans blue dye in the BALF was then expressed as a proportion of the amount in the plasma. (5, 32).

T/HS mice [4] = experiment: Plasma AST and ALT levels (liver injury) after trauma/hemorrhagic shock; type: in vivo; conditions: for T/HS-enhanced ALT level in plasma / T/HS-enhanced AST level in plasma: wild-type T/HS mice vs vehicle, i.p. pretreatment 30 min before shock; for liver injury: T/HS mice
Method: as §1, §2
Plasma samples were analyzed to determine the levels of aspartate aminotransferase (AST) and alanine aminotransferase (ALT). To do this, the samples were diluted with AST (TR70121 Thermo Fisher, USA) and ALT (TR71122 Thermo Fisher, USA) reagents at a 1:10 ratio, and the resulting light signal was measured using a spectrophotometer at 340 and 405 nm (32).

T/HS mice [5] = experiment: Plasma IL-6 and IL-10 by ELISA after trauma/hemorrhagic shock; type: in vivo; conditions: T/HS mice compared to vehicle-treated T/HS mice
Method: as §1, §2
IL-6 and IL-10 levels were measured in plasma samples using enzyme-linked immunosorbent assay (ELISA) kits (DY406, DY417; R&D Systems Minneapolis, USA) according to the manufacturer's instructions (32).

CD39 deficient mice = conditions: cardiac, renal, hepatic, intestinal ischemia-reperfusion, exogenous supplementation; cited from earlier work

Molecule	lung permeability (rat model of T/HS)	neutrophil infiltration into the lung (rat model of T/HS)	increased vascular permeability [1]	polymorphonuclear neutrophil extravasation [1]	neutrophil infiltration (lung MPO activity) (T/HS mice [2]; CD39-/- mice after T/HS)	neutrophil infiltration (lung MPO activity) (T/HS mice [2]; CD73-/- mice after T/HS)	T/HS-induced lung injury (lung permeability, EBD method) (T/HS mice [3])	T/HS-enhanced ALT level in plasma (T/HS mice [4])	T/HS-enhanced AST level in plasma (T/HS mice [4])	plasma IL-6 levels (T/HS mice [5])	plasma IL-10 levels (T/HS mice [5])	neutrophil sequestration / infiltration in lung (MPO activity) (T/HS mice [2])	increased ischemic organ injury (CD39 deficient mice)	liver injury (T/HS mice [4])
N#Cc1c(N)nc(SCC(N)=O)c(C#N)c1-c1ccc(OCC2CC2)cc1 [BAY 60-6583]	decreases	not												
CCNC(=O)[C@H]1O[C@@H](n2cnc3c(N)ncnc32)[C@H](O)[C@@H]1O [NECA, 1-(6-Amino-9H-purin-9-yl)-1-deoxy-N-ethyl-β-D-ribofuranuronamide]			reversed	reversed	decreased	decreased								
O=P(O)(O)CP(=O)(O)OC[C@H]1O[C@@H](n2cnc3c(NCc4ccccc4)ncnc32)[C@H](O)[C@@H]1O.[Na].[Na] [PSB 12379, N6-Benzyl-α,β-methyleneadenosine 5′-diphosphate disodium salt]							increased	increased	increased	increased	reduced	increased		
apyrase							moderated	suppressed	suppressed	lower	increased	moderated	reversed	decreased
sodium polyoxotungstate [POM1]							exacerbated	increased	increased	higher	similar	exacerbated		
B1							decreased	suppressed	suppressed	decreased	increased	decreased		decreased
